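Dose response: 5 concentrations. Exposure: 48 h. Format: 96-well plates. Endpoint: linear interpolation; highest concentration if not reached. Here, GI50 denotes the concentration required for 50% inhibition of growth. TGI denotes the concentration required for complete inhibition of growth.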
Tests used:
Test in all cases: inhibition of tumour cell growth, NCI panel, 48 h
MDA-MB-435 = tested on: MDA-MB-435
HCT-15 colon = tested on: HCT-15 colon
K-562 leukemia = tested on: K-562 leukemia
OVCAR-5 ovarian = tested on: OVCAR-5 ovarian
HS 578T breast = tested on: HS 578T breast
DU-145 prostate = tested on: DU-145 prostate
CCRF-CEM leukemia = tested on: CCRF-CEM leukemia
NCI-H460 lung = tested on: NCI-H460 lung
OVCAR-4 ovarian = tested on: OVCAR-4 ovarian
MCF7 breast = tested on: MCF7 breast
HCC-2998 colon = tested on: HCC-2998 colon
LOX IMVI melanoma = tested on: LOX IMVI melanoma
SR leukemia = tested on: SR leukemia
T-47D breast = tested on: T-47D breast
HCT-116 colon = tested on: HCT-116 colon
NCI-H522 lung = tested on: NCI-H522 lung
HL-60(TB) leukemia = tested on: HL-60(TB) leukemia
SF-539 CNS = tested on: SF-539 CNS
NCI/ADR-RES ovarian = tested on: NCI/ADR-RES ovarian
NCI-H23 lung = tested on: NCI-H23 lung
A498 renal = tested on: A498 renal
KM12 colon = tested on: KM12 colon
SNB-75 CNS = tested on: SNB-75 CNS
NCI-H226 lung = tested on: NCI-H226 lung
786-0 renal = tested on: 786-0 renal
SK-MEL-28 melanoma = tested on: SK-MEL-28 melanoma
MOLT-4 leukemia = tested on: MOLT-4 leukemia
UO-31 renal = tested on: UO-31 renal
OVCAR-3 ovarian = tested on: OVCAR-3 ovarian
UACC-62 melanoma = tested on: UACC-62 melanoma
OVCAR-8 ovarian = tested on: OVCAR-8 ovarian
TK-10 renal = tested on: TK-10 renal
PC-3 prostate = tested on: PC-3 prostate
A549 NSCLC = tested on: A549 NSCLC
SF-268 CNS = tested on: SF-268 CNS
HOP-92 NSCLC = tested on: HOP-92 NSCLC
SNB-19 CNS = tested on: SNB-19 CNS
BT-549 breast = tested on: BT-549 breast
UACC-257 melanoma = tested on: UACC-257 melanoma
SK-MEL-5 melanoma = tested on: SK-MEL-5 melanoma
HT29 colon = tested on: HT29 colon
SK-MEL-2 melanoma = tested on: SK-MEL-2 melanoma
SW-620 colon = tested on: SW-620 colon
COLO 205 colon = tested on: COLO 205 colon
MDA-MB-231 breast = tested on: MDA-MB-231 breast
SN12C renal = tested on: SN12C renal
SK-OV-3 ovarian = tested on: SK-OV-3 ovarian
M14 melanoma = tested on: M14 melanoma
EKVX NSCLC = tested on: EKVX NSCLC
RPMI-8226 leukemia = tested on: RPMI-8226 leukemia
HOP-62 NSCLC = tested on: HOP-62 NSCLC
U251 CNS = tested on: U251 CNS
IGROV1 ovarian = tested on: IGROV1 ovarian
MALME-3M melanoma = tested on: MALME-3M melanoma
ACHN renal = tested on: ACHN renal
RXF 393 renal = tested on: RXF 393 renal
CAKI-1 renal = tested on: CAKI-1 renal

CC(=O)/C(=C/c1ccccc1)C(=O)CC(C)C
GI50 (MDA-MB-435): 2.44 µM
TGI (MDA-MB-435): 7.72 µM
GI50 (HCT-15 colon): 4.69 µM
TGI (HCT-15 colon): 22.3 µM
GI50 (K-562 leukemia): 3.77 µM
TGI (K-562 leukemia): > 100 µM
GI50 (OVCAR-5 ovarian): 17.7 µM
TGI (OVCAR-5 ovarian): 41.6 µM
GI50 (HS 578T breast): 3.89 µM
TGI (HS 578T breast): 21.2 µM
GI50 (DU-145 prostate): 14.4 µM
TGI (DU-145 prostate): 28 µM
GI50 (CCRF-CEM leukemia): 3.96 µM
TGI (CCRF-CEM leukemia): > 100 µM
GI50 (NCI-H460 lung): 17.5 µM
TGI (NCI-H460 lung): 38.5 µM
GI50 (OVCAR-4 ovarian): 17.6 µM
TGI (OVCAR-4 ovarian): 41.4 µM
GI50 (MCF7 breast): 4.5 µM
TGI (MCF7 breast): 18.5 µM
GI50 (HCC-2998 colon): 9.49 µM
TGI (HCC-2998 colon): 21.7 µM
GI50 (LOX IMVI melanoma): 1.85 µM
TGI (LOX IMVI melanoma): 4.02 µM
GI50 (SR leukemia): 2.46 µM
TGI (SR leukemia): 7.37 µM
GI50 (T-47D breast): 24 µM
TGI (T-47D breast): 91.9 µM
GI50 (HCT-116 colon): 2.05 µM
TGI (HCT-116 colon): 3.97 µM
GI50 (NCI-H522 lung): 9.68 µM
TGI (NCI-H522 lung): 22 µM
GI50 (HL-60(TB) leukemia): 22.1 µM
TGI (HL-60(TB) leukemia): 90.2 µM
GI50 (SF-539 CNS): 23.4 µM
TGI (SF-539 CNS): 49.4 µM
GI50 (NCI/ADR-RES ovarian): 18.2 µM
TGI (NCI/ADR-RES ovarian): 58.9 µM
GI50 (NCI-H23 lung): 18.4 µM
TGI (NCI-H23 lung): 43.1 µM
GI50 (A498 renal): 19.4 µM
TGI (A498 renal): 38.8 µM
GI50 (KM12 colon): 2.25 µM
TGI (KM12 colon): 5.01 µM
GI50 (SNB-75 CNS): 21.2 µM
TGI (SNB-75 CNS): 42.4 µM
GI50 (NCI-H226 lung): 25.1 µM
TGI (NCI-H226 lung): 71.4 µM
GI50 (786-0 renal): 17.5 µM
TGI (786-0 renal): 32.5 µM
GI50 (SK-MEL-28 melanoma): 11.5 µM
TGI (SK-MEL-28 melanoma): 24.9 µM
GI50 (MOLT-4 leukemia): 3.59 µM
TGI (MOLT-4 leukemia): 79.4 µM
GI50 (UO-31 renal): 10.5 µM
TGI (UO-31 renal): 22.6 µM
GI50 (OVCAR-3 ovarian): 4.69 µM
TGI (OVCAR-3 ovarian): 15.9 µM
GI50 (UACC-62 melanoma): 6.54 µM
TGI (UACC-62 melanoma): 20.9 µM
GI50 (OVCAR-8 ovarian): 17.6 µM
TGI (OVCAR-8 ovarian): 53 µM
GI50 (TK-10 renal): 23.9 µM
TGI (TK-10 renal): 50.5 µM
GI50 (PC-3 prostate): 25.6 µM
TGI (PC-3 prostate): 93.6 µM
GI50 (A549 NSCLC): 26.5 µM
TGI (A549 NSCLC): 73.8 µM
GI50 (SF-268 CNS): 14.3 µM
TGI (SF-268 CNS): 33 µM
GI50 (HOP-92 NSCLC): 32.7 µM
TGI (HOP-92 NSCLC): > 100 µM
GI50 (SNB-19 CNS): 12.7 µM
TGI (SNB-19 CNS): 26.2 µM
GI50 (BT-549 breast): 14.9 µM
TGI (BT-549 breast): 28.9 µM
GI50 (UACC-257 melanoma): 13.9 µM
TGI (UACC-257 melanoma): 28.9 µM
GI50 (SK-MEL-5 melanoma): 13.5 µM
TGI (SK-MEL-5 melanoma): 26.9 µM
GI50 (HT29 colon): 3.8 µM
TGI (HT29 colon): 12.8 µM
GI50 (SK-MEL-2 melanoma): 24.5 µM
TGI (SK-MEL-2 melanoma): 60.7 µM
GI50 (SW-620 colon): 2.14 µM
TGI (SW-620 colon): 4.63 µM
GI50 (COLO 205 colon): 16.9 µM
TGI (COLO 205 colon): 35.5 µM
GI50 (MDA-MB-231 breast): 18.2 µM
TGI (MDA-MB-231 breast): 41.1 µM
GI50 (SN12C renal): 14.3 µM
TGI (SN12C renal): 39 µM
GI50 (SK-OV-3 ovarian): 31.8 µM
TGI (SK-OV-3 ovarian): 99 µM
GI50 (M14 melanoma): 10.8 µM
TGI (M14 melanoma): 24.3 µM
GI50 (EKVX NSCLC): 17.3 µM
TGI (EKVX NSCLC): 40.9 µM
GI50 (RPMI-8226 leukemia): 4.31 µM
TGI (RPMI-8226 leukemia): 98.2 µM
GI50 (HOP-62 NSCLC): 26.8 µM
TGI (HOP-62 NSCLC): 71.8 µM
GI50 (U251 CNS): 4.86 µM
TGI (U251 CNS): 17.7 µM
GI50 (IGROV1 ovarian): 16.4 µM
TGI (IGROV1 ovarian): 33.6 µM
GI50 (MALME-3M melanoma): 16.7 µM
TGI (MALME-3M melanoma): 37.3 µM
GI50 (ACHN renal): 11.2 µM
TGI (ACHN renal): 26.3 µM
GI50 (RXF 393 renal): 16.4 µM
TGI (RXF 393 renal): 30.5 µM
GI50 (CAKI-1 renal): 7.56 µM
TGI (CAKI-1 renal): 20.6 µM
